Assay results published in ChEMBL document CHEMBL4270587, “Difuran-substituted quinoxalines as a novel class of PI3Kα H1047R mutant inhibitors: Synthesis, biological evaluation and structure-activity relationship” (Eur J Med Chem, 2018).

Legend:
HCT-116 [1] = assay: Induction of apoptosis in human HCT116 cells assessed as increase in active caspase-9 protein expression after 72 hrs by Western blot analysis; assay type: functional, cell-based
HCT-116 [2] = assay: Cell cycle arrest in human HCT116 cells assessed as accumulation at G2/M-phase at 10 uM after 24 hrs by propidium iodide staining based flow cytometry (reference value: 31.47%); assay type: functional
HCT-116 [3] = assay: cells; conditions: Homo sapiens, HCT-116, 72 h
HCT-116 [4] = assay: Induction of apoptosis in human HCT116 cells assessed as necrotic cells at 6.25 uM after 24 hrs by Annexin V-FITC/propidium iodide staining based flow cytometry (reference value: […]); assay type: functional
HCT-116 [5] = assay: Cell cycle arrest in human HCT116 cells assessed as accumulation at G1 phase at 5 uM after 24 hrs by propidium iodide staining based flow cytometry (reference value: 38.72%); assay type: functional
HCT-116 [6] = assay: Cell cycle arrest in human HCT116 cells assessed as accumulation at S-phase at 10 uM after 24 hrs by propidium iodide staining based flow cytometry (reference value: 29.81%); assay type: functional
HCT-116 [7] = assay: Induction of apoptosis in human HCT116 cells assessed as early apoptotic cells at 12.5 uM after 24 hrs by Annexin V-FITC/propidium iodide staining based flow cytometry (reference value: 2.24%); assay type: functional
HCT-116 [8] = assay: Induction of apoptosis in human HCT116 cells assessed as live cells at 12.5 uM after 24 hrs by Annexin V-FITC/propidium iodide staining based flow cytometry (reference value: 89.89%); assay type: functional
HCT-116 [9] = assay: Induction of apoptosis in human HCT116 cells assessed as increase in active caspase-3 protein expression after 72 hrs by Western blot analysis; assay type: functional, cell-based
[10] = biological target: Phosphatidylinositol 4,5-bisphosphate 3-kinase catalytic subunit gamma isoform (Homo sapiens, UniProt P48736); assay: Inhibition of PI3K-gamma (unknown origin) after 40 mins by Kinase-Glo assay
HCT-116 [11] = assay: Cell cycle arrest in human HCT116 cells assessed as accumulation at G1 phase after 24 hrs by propidium iodide staining based flow cytometry; assay type: functional
HCT-116 [12] = assay: Cell cycle arrest in human HCT116 cells assessed as accumulation at G1 phase at 10 uM after 24 hrs by propidium iodide staining based flow cytometry (reference value: 38.72%); assay type: functional
HCT-116 [13] = assay: Induction of apoptosis in human HCT116 cells assessed as early apoptotic cells at 25 uM after 24 hrs by Annexin V-FITC/propidium iodide staining based flow cytometry (reference value: 2.24%); assay type: functional
HCT-116 [14] = assay: Induction of apoptosis in human HCT116 cells after 24 hrs by Annexin V-FITC/propidium iodide staining based flow cytometry; assay type: functional, cell-based
HCT-116 [15] = assay: Cell cycle arrest in human HCT116 cells assessed as accumulation at S-phase at 5 uM after 24 hrs by propidium iodide staining based flow cytometry (reference value: 29.81%); assay type: functional
[16] = biological target: T1, Phosphatidylinositol 4,5-bisphosphate 3-kinase catalytic subunit delta isoform (Homo sapiens, UniProt O00329); assay: Inhibition of PI3K-delta (unknown origin) after 40 mins by Kinase-Glo assay
T1 sequence (O00329 whole entry): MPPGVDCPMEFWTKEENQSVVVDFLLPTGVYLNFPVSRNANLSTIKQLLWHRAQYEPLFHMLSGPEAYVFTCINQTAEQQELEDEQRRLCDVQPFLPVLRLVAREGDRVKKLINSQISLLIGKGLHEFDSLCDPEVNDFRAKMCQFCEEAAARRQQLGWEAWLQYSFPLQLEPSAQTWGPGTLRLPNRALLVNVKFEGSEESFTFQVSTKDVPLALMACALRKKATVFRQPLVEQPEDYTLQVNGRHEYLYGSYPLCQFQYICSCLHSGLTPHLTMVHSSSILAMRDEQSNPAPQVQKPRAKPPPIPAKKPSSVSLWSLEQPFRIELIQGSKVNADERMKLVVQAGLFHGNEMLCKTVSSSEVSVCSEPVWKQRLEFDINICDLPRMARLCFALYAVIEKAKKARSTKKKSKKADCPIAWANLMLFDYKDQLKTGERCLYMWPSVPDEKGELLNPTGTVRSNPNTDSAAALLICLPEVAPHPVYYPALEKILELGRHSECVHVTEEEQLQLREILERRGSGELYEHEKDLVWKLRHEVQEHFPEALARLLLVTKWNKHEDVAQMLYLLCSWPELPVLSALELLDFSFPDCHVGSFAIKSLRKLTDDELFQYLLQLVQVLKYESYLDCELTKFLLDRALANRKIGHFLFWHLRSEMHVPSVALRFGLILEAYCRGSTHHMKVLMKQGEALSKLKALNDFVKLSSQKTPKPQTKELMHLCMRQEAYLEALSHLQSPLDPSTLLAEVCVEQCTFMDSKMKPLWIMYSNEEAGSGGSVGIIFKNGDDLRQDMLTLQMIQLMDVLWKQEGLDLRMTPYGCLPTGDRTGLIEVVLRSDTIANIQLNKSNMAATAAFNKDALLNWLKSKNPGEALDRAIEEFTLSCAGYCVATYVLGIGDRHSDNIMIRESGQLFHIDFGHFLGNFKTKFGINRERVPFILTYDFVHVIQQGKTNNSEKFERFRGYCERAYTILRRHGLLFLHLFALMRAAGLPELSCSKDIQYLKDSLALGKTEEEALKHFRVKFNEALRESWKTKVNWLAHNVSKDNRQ

[17] = biological target: PI3-kinase p110-alpha/p85-alpha (Homo sapiens, UniProt P42336, H1047R); assay: Inhibition of recombinant full length PI3K p85alpha/p110alpha H1047R mutant (unknown origin) expressed in baculovirus infected sf9 cells using PIP2 as substrate preincubated for 10 mins followed by ATP addition and measured after 45 mins by HTRF assay
HCT-116 [18] = assay: Cell cycle arrest in human HCT116 cells assessed as accumulation at S-phase at 20 uM after 24 hrs by propidium iodide staining based flow cytometry (reference value: 29.81%); assay type: functional
HCT-116 [19] = assay: Induction of apoptosis in human HCT116 cells assessed as necrotic cells at 12.5 uM after 24 hrs by Annexin V-FITC/propidium iodide staining based flow cytometry (reference value: […]); assay type: functional
HCT-116 [20] = assay: Induction of apoptosis in human HCT116 cells assessed as late apoptotic cells at 25 uM after 24 hrs by Annexin V-FITC/propidium iodide staining based flow cytometry (reference value: 7.2%); assay type: functional
HCT-116 [21] = assay: Cell cycle arrest in human HCT116 cells assessed as accumulation at G2/M-phase at 20 uM after 24 hrs by propidium iodide staining based flow cytometry (reference value: 31.47%); assay type: functional
HCT-116 [22] = assay: Induction of apoptosis in human HCT116 cells assessed as increase in active caspase-8 protein expression after 72 hrs by Western blot analysis; assay type: functional, cell-based
HCT-116 [23] = assay: Induction of apoptosis in human HCT116 cells assessed as live cells at 25 uM after 24 hrs by Annexin V-FITC/propidium iodide staining based flow cytometry (reference value: 89.89%); assay type: functional
HCT-116 [24] = assay: Cell cycle arrest in human HCT116 cells assessed as accumulation at G2/M-phase at 5 uM after 24 hrs by propidium iodide staining based flow cytometry (reference value: 31.47%); assay type: functional
HCT-116 [25] = assay: Induction of apoptosis in human HCT116 cells assessed as early apoptotic cells at 6.25 uM after 24 hrs by Annexin V-FITC/propidium iodide staining based flow cytometry (reference value: 2.24%); assay type: functional
MCF7 = assay: cells; conditions: Homo sapiens, MCF7, 72 h
Description: Antiproliferative activity against human MCF7 cells after 72 hrs by CCK8 assay

[26] = Inhibition of mTORC1 (unknown origin); design: species or system Homo sapiens
[27] = biological target: Phosphatidylinositol 4,5-bisphosphate 3-kinase catalytic subunit beta isoform (Homo sapiens, UniProt P42338); assay: Inhibition of PI3K-beta (unknown origin) after 40 mins by Kinase-Glo assay
HCT-116 [28] = assay: Induction of apoptosis in human HCT116 cells assessed as live cells at 6.25 uM after 24 hrs by Annexin V-FITC/propidium iodide staining based flow cytometry (reference value: 89.89%); assay type: functional
HCT-116 [29] = assay: Induction of apoptosis in human HCT116 cells assessed as late apoptotic cells at 6.25 uM after 24 hrs by Annexin V-FITC/propidium iodide staining based flow cytometry (reference value: 7.2%); assay type: functional
[30] = biological target: PI3-kinase p110-alpha/p85-alpha (Homo sapiens, UniProt P42336); assay: Inhibition of recombinant full length PI3K p110alpha/p85alpha (unknown origin) expressed in baculovirus infected sf9 cells using PIP2 as substrate preincubated for 10 mins followed by ATP addition and measured after 45 mins by HTRF assay
HCT-116 [31] = assay: Cell cycle arrest in human HCT116 cells assessed as accumulation at G1 phase at 20 uM after 24 hrs by propidium iodide staining based flow cytometry (reference value: 38.72%); assay type: functional
HCT-116 [32] = assay: Induction of apoptosis in human HCT116 cells assessed as necrotic cells at 25 uM after 24 hrs by Annexin V-FITC/propidium iodide staining based flow cytometry (reference value: […]); assay type: functional
HCT-116 [33] = assay: Induction of apoptosis in human HCT116 cells assessed as late apoptotic cells at 12.5 uM after 24 hrs by Annexin V-FITC/propidium iodide staining based flow cytometry (reference value: 7.2%); assay type: functional

Sequence of Phosphatidylinositol 4,5-bisphosphate 3-kinase catalytic subunit beta isoform (P42338 whole entry, canonical isoform): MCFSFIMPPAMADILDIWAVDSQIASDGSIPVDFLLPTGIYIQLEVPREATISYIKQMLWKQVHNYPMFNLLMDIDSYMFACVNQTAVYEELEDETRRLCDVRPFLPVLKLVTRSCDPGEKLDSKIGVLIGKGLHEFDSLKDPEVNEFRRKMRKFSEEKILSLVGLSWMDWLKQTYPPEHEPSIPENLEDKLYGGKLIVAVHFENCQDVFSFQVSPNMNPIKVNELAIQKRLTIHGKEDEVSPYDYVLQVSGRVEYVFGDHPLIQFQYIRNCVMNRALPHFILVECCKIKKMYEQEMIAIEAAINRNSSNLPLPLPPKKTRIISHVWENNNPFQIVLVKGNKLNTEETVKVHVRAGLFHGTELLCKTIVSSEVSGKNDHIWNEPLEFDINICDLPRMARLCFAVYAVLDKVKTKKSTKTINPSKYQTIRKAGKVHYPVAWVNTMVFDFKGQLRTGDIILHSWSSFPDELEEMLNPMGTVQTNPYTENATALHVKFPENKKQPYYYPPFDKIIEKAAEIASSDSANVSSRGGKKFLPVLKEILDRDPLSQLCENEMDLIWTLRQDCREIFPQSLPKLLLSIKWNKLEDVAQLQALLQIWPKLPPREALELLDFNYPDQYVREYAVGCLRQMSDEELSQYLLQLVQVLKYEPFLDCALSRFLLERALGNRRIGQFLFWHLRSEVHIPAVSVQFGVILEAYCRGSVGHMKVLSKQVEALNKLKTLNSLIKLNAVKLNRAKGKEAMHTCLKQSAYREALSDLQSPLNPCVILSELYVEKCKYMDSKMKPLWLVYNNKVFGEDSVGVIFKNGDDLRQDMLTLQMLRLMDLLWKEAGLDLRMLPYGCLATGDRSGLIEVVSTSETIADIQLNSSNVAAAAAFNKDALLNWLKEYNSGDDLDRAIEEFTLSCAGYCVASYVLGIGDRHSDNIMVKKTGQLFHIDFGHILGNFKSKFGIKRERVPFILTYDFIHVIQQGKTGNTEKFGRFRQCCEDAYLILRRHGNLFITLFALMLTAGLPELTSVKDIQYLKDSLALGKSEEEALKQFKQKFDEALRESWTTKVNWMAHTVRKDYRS
Sequence of PI3-kinase p110-alpha/p85-alpha (Homo sapiens, UniProt P42336, H1047R) (P42336 whole entry H1047R, looked up): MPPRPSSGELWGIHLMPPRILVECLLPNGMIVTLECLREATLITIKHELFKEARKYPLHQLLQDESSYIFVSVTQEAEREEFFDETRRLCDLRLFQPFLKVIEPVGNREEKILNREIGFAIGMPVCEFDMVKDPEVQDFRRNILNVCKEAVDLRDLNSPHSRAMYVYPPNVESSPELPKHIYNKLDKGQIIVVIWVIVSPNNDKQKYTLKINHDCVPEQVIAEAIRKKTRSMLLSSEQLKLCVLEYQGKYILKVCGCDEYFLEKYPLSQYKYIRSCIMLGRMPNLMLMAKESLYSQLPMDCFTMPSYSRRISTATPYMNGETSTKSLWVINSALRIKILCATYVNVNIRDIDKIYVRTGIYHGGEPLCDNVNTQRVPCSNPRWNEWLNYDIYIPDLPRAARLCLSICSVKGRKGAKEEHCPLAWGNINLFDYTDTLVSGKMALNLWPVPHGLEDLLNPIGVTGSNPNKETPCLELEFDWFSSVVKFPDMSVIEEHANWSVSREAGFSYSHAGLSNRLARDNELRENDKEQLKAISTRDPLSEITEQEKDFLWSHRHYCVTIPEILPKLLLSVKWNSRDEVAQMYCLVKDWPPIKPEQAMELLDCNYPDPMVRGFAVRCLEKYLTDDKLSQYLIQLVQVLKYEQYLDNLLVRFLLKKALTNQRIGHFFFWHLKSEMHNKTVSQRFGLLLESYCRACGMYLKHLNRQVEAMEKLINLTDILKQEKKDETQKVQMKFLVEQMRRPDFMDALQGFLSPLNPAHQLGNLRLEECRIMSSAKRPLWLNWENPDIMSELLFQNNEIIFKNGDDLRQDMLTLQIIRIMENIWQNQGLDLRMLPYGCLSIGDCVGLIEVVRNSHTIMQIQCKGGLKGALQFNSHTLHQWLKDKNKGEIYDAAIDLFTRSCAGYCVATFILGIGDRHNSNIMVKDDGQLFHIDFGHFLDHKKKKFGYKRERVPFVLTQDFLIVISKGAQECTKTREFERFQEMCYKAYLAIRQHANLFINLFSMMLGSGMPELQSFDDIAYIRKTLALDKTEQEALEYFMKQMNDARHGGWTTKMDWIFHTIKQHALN
Sequence of Phosphatidylinositol 4,5-bisphosphate 3-kinase catalytic subunit gamma isoform (P48736 whole entry, canonical isoform): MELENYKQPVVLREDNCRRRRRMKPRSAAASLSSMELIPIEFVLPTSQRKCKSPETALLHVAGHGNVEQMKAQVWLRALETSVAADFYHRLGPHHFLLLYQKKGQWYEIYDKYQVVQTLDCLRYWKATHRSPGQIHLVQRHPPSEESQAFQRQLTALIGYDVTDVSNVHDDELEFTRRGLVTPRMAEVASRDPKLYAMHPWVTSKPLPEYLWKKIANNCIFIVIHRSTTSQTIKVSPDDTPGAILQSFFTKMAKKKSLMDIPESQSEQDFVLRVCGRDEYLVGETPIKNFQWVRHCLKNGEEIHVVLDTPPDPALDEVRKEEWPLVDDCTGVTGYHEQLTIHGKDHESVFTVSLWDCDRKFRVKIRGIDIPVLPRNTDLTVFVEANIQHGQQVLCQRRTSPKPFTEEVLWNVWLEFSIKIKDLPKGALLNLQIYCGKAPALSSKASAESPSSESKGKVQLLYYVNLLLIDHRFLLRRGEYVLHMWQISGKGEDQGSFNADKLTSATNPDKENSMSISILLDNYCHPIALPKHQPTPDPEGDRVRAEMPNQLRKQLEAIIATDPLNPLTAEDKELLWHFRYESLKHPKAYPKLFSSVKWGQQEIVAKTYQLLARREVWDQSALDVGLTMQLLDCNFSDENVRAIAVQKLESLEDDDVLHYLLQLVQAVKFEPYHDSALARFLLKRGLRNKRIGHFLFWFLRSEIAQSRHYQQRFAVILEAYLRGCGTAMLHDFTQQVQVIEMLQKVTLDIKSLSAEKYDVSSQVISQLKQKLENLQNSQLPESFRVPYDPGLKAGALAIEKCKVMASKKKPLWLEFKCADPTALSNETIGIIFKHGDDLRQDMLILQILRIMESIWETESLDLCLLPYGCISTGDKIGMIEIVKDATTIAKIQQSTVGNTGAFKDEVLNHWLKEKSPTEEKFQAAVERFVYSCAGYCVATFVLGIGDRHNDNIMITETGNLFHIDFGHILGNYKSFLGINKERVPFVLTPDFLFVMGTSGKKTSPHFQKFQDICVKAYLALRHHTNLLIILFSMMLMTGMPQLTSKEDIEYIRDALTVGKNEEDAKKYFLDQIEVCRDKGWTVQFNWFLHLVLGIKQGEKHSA
Sequence of PI3-kinase p110-alpha/p85-alpha (Homo sapiens, UniProt P42336) (P27986 whole entry): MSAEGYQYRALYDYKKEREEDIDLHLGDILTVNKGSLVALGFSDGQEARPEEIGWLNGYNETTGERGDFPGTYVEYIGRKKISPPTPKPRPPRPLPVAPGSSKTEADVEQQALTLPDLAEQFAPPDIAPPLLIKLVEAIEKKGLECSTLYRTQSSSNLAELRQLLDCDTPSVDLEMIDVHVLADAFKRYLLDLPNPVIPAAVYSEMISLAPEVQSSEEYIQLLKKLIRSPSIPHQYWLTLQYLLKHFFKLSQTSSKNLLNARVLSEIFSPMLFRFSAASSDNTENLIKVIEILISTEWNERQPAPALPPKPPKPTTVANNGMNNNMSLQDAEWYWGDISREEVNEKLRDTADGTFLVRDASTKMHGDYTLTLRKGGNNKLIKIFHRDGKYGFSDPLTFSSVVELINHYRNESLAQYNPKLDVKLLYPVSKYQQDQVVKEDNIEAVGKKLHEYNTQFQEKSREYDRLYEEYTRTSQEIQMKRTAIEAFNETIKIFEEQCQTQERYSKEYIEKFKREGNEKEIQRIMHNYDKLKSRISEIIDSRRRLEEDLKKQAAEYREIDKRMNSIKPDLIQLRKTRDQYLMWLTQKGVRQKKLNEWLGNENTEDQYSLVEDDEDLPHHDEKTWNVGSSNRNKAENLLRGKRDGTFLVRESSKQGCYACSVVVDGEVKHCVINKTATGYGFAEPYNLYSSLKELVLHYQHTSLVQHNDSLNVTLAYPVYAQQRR
Sequence of PI3-kinase p110-alpha/p85-alpha (Homo sapiens, UniProt P42336) (P42336 whole entry): as the sequence (P42336 whole entry H1047R, looked up) above, with R1047H counted along it

SMILES: Fc1ccccc1-c1cc2nc(-c3ccco3)c(-c3ccco3)nc2cc1Br
- Activity (HCT-116 [1]): Dose-dependent effect
- Activity (HCT-116 [2]): 20.34%
- IC50 (HCT-116 [3]): 11.2 µM
- Activity (HCT-116 [4]): 1.01%
- Activity (HCT-116 [5]): 44.42%
- Activity (HCT-116 [6]): 21.99%
- Activity (HCT-116 [7]): 3.03%
- Activity (HCT-116 [8]): 80.29%
- Activity (HCT-116 [9]): Dose-dependent effect
- EC50 [10]: 9.89 µM
- Activity (HCT-116 [11]): Dose-dependent effect
- Activity (HCT-116 [12]): 57.67%
- Activity (HCT-116 [13]): 13.97%
- Activity (HCT-116 [14]): Dose-dependent effect
- Activity (HCT-116 [15]): 24.42%
- EC50 [16]: 15.7 µM
- EC50 [17]: 0.137 µM
- Activity (HCT-116 [18]): 18.28%
- Activity (HCT-116 [19]): 0.96%
- Activity (HCT-116 [20]): 23.77%
- Activity (HCT-116 [21]): 11%
- Activity (HCT-116 [22]): Dose-dependent effect
- Activity (HCT-116 [23]): 61.38%
- Activity (HCT-116 [24]): 32.16%
- Activity (HCT-116 [25]): 3.57%
- IC50 (MCF7): 13.7 µM
- EC50 [26]: > 30 µM
- EC50 [27]: 3.34 µM
- Activity (HCT-116 [28]): 84.79%
- Activity (HCT-116 [29]): 10.63%
- EC50 [30]: 0.093 µM
- Activity (HCT-116 [31]): 70.72%
- Activity (HCT-116 [32]): 0.88%
- Activity (HCT-116 [33]): 15.72%
